The text below walks through data of patent US7112585B2, “Pyrimidine derivatives as corticotropin releasing factor inhibitors” (Bristol-Myers Squibb Company, priority 2003, dated 2006).

The melting point is the temperature, or range, at which the solid turns liquid. What is called Ki is the dissociation constant of the complex between target and ligand, obtained from inhibition or displacement.

Series [1] has as its target T1, cloned human CRF-R1 receptors (Homo sapiens, UniProt P34998).
T1 construct: the coding region was amplifies by PCR from start to stop codons; expressed in transfected cells; host or cells: 293EBNA (HEK 293 EBNA-1) cells, episomal vector phchCRFR, hygromycin-selected pool; membranes
T1 sequence (P34998 24-415): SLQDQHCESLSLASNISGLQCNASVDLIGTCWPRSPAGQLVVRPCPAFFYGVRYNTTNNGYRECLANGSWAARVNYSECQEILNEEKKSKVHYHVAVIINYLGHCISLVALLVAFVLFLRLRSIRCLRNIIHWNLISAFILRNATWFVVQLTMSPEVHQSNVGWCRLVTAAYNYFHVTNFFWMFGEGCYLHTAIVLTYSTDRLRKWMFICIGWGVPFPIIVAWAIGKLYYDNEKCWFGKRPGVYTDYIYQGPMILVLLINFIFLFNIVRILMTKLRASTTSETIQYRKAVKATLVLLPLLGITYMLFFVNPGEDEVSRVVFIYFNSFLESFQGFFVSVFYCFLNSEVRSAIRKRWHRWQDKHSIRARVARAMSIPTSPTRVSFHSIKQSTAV
The experiment in a line: CRF-R1 Receptor Binding Assay (inhibition of 125I-ovine-CRF binding to cell membranes). More on the design: key to activity: a: Ki≦100 nM; b: 100 nM<Ki≦500 nM; c: 500 nM<Ki≦5,000 nM; activity reported in percent inhibition at 10 μM. The following applies: CRF assays; class d = activity only as percent inhibition at 10 μM (value not given). The text has this: CRF-R1 Receptor Binding Assay for the Evaluation of Biological Activity
The following is a description of the isolation of cell membranes containing cloned human CRF-R1 receptors for use in a standard binding assay as well as a description of the assay itself.
Messenger RNA was isolated from human hippocampus. The mRNA was isolated from human hippocampus. The mRNA was reverse transcribed using oligo (dt) 12–18 and the coding region was amplifies by PCR from start to stop codons. The resulting PCR fragment was cloned into the EcORV site of pGEMV, from whence the insert was reclaimed using XhoI+XbaI and cloned into the XhoI+XbaI sites of vector pm3as (which contains a CMV promoter, the SV′t′ splice and early poly A signals, an Eptein-Barr viral origin of replication, and a hygromycin selectable marker). The resulting expression vector, called phchCRFR was transfected in 293EBNA cells and cells retaining the episome were selected in the presence of […] hygromycin. Cells surviving 4 weeks of selection in hygromycin were pooled, adapted to growth in suspension and used to generate membranes for the binding assay described below. Individual aliquots containing approximately 1×10^8 of the suspended cells were then centrifuged to form a pellet and frozen. For the binding assay a frozen pellet described above containing 293EBNA cells transfected with hCRFR1 receptors is homogenized in 10 mL of ice cold tissue buffer (50 mM HEPES buffer pH 7.0, containing 10 MM MgCl2, 2 mM EGTA, 1 μg/mL apotinin, 1 μg/mL leupeptin and 1 μg/mL pepstatin). The homoginate is centrifuged at 40,000×g for 12 min and the resulting pellet rehomogenized in 10 mL of tissue buffer. After another centrifugation at 40,000×g for 12 min, the pellet is resuspended to a protein concentration of 360 μg/mL to be used in the assay.
Binding assays are performed in 96 well plates; each well having a 300 μL capacity. To each well is added 50 μL of test drug dilutions (final concentration of drugs range from 10^−10–10^−5 M), 100 μL of ^125I-ovine-CRF (^125I-o-CRF) (final concentration 150 pM) and 150 μL of the cell homoginate described above. Plates are then allowed to incubate at room temperature for 2 hours before filtering the incubate over GF/F filters (presoaked with 0.3% polyethyleneimine) using an appropriate cell harvester. Filters are rinsed 2 times with ice cold assay buffer before removing individual filters and assessing them for radioactivity on a gamma counter.
Curves of the inhibition of ^125I-o-CRF binding to cell membranes at various dilutions of test drug are analyzed by the iterative curve fitting program LIGAND [P. J. Munson and D. Rodbard, Anal. Biochem., 107:220 (1980), which provides Ki values for inhibition which are then used to assess biological activity. […]
Messenger RNA was isolated from human hippocampus. The mRNA was isolated from human hippocampus. The mRNA was reverse transcribed using oligo (dt) 12–18 and the coding region was amplifies by PCR from start to stop codons. The resulting PCR fragment was cloned into the EcORV site of pGEMV, from whence the insert was reclaimed using XhoI+XbaI and cloned into the XhoI+XbaI sites of vector pm3as (which contains a CMV promoter, the SV′t′ splice and early poly A signals, an Eptein-Barr viral origin of replication, and a hygromycin selectable marker). The resulting expression vector, called phchCRFR was transfected in 293EBNA cells and cells retaining the episome were selected in the presence of […] hygromycin. Cells surviving 4 weeks of selection in hygromycin were pooled, adapted to growth in suspension and used to generate membranes for the binding assay described below. […]
A frozen pellet described above containing 293EBNA cells transfected with hCRFR1 receptors or the rat frontal cortex tissue dissected from frozen rat brains was prepared as the source of membranes expressing CRF1 receptors used in binding assays. […]

For the compound `Cc1cc(C)c(Nc2nc(C)ncc2S(=O)(=O)c2ccc(C#N)cc2)c(C)c1` [Example 22, 4-[2-Methyl-4-(2,4,6-trimethylphenylamino)-pyrimidine-5-sulfonyl]-benzonitrile], the melting point fell in the range of 258 to 260 °C. In series [1], the inhibitory constant (Ki) was in the range of 500 to 5000 nM.
For `Cc1ccc(S(=O)(=O)c2cnc(C)nc2Nc2c(C)cc(C)cc2C)cc1` [Example 23, [2-Methyl-5-(toluene-4-sulfonyl)-pyrimidin-4-yl]-(2,4,6-trimethylphenyl)-amine] the same measures were 202 to 204 °C and 100 to 500 nM.
The compound `Cc1cc(C)c(Nc2nc(C)ncc2S(=O)(=O)c2ccc(-c3cncnc3)cc2)c(C)c1` [Example 24, [2-Methyl-5-(4-pyrimidin-5-yl-benzenesulfonyl)-pyrimidin-4-yl]-(2,4,6-trimethylphenyl)-amine] yielded a melting point of 210 to 212 °C. Moreover, the activity result in series [1] is on record as “d”.
With `Cc1cc(C)c(Nc2nc(C)ncc2S(=O)(=O)c2ccc(-c3ncccn3)cc2)c(C)c1` [Example 25, [2-Methyl-5-(4-pyrimidin-2-yl-benzenesulfonyl)-pyrimidin-4-yl]-(2,4,6-trimethylphenyl)-amine], the melting point was in the range of 215 to 217 °C. In addition, the Ki in series [1] is at most 100 nM.
As to `Cc1cc(C)c(Nc2nc(C)ncc2S(=O)(=O)c2ccc(-c3ccncc3)cc2)c(C)c1` [Example 26, [2-Methyl-5-(4-pyridin-4-yl-benzenesulfonyl)-pyrimidin-4-yl]-(2,4,6-trimethylphenyl)-amine], the melting point was in the range of 232 to 234 °C. In addition, in series [1], the Ki is 500 to 5000 nM.
In the case of `Cc1cc(C)c(Nc2nc(C)ncc2S(=O)(=O)c2ccc(-c3ccccn3)cc2)c(C)c1` [Example 27, [2-Methyl-5-(4-pyridin-2-yl-benzenesulfonyl)-pyrimidin-4-yl]-(2,4,6-trimethylphenyl)-amine], the melting point is 201 to 203 °C. The compound also gave a Ki in series [1] of at most 100 nM.
On to `Cc1cc(C)c(Nc2nc(C)ncc2S(=O)(=O)c2ccc(-c3cccnc3)cc2)c(C)c1` [Example 28, [2-Methyl-5-(4-pyridin-3-yl-benzenesulfonyl)-pyrimidin-4-yl]-(2,4,6-trimethylphenyl)-amine], for which the melting point was in the range of 190 to 192 °C. Moreover, the Ki in series [1] lay within 500 to 5000 nM.
As for `Cc1cc(C)c(Nc2nc(C)ncc2S(=O)(=O)c2ccc(C3=NCCN3)cc2)c(C)c1` [Example 29, {5-[4-(4,5-Dihydro-1H-imidazol-2-yl)-benzenesulfonyl]-2-methyl-pyrimidin-4-yl}-(2,4,6-trimethylphenyl)-amine], the melting point lay in the range of 240 to 242 °C. Also, in series [1], the activity result is given as “d”.
Compound `Cc1cc(C)c(Nc2nc(C)ncc2S(=O)(=O)c2ccc(-c3ncc[nH]3)cc2)c(C)c1` [Example 30, {5-[4-(1H-Imidazol-2-yl)-benzenesulfonyl]-2-methyl-pyrimidin-4-yl}-(2,4,6-trimethylphenyl)-amine] showed a melting point of 282 to 284 °C. In series [1], the activity result was “d”.
